According to PubChem BioAssay (NCI):
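Cultured in 96-well plates, cells were exposed to test compound for 48 hours across five concentrations. TGI marks complete inhibition of growth.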

How the values were obtained:
Experiment in all cases: NCI-60 cell line screen, 48 h
[1] = test system: K-562 leukemia
[2] = test system: SK-MEL-28 melanoma
[3] = test system: OVCAR-5 ovarian
[4] = test system: M14 melanoma
[5] = test system: LOX IMVI melanoma
[6] = test system: HT29 colon
[7] = test system: SR leukemia
[8] = test system: OVCAR-3 ovarian
[9] = test system: NCI-H460 lung
[10] = test system: TK-10 renal
[11] = test system: UACC-257 melanoma
[12] = test system: ACHN renal
[13] = test system: SN12C renal
[14] = test system: A549 NSCLC
[15] = test system: 786-0 renal
[16] = test system: OVCAR-8 ovarian
[17] = test system: RPMI-8226 leukemia
[18] = test system: NCI/ADR-RES ovarian
[19] = test system: HL-60(TB) leukemia
[20] = test system: NCI-H522 lung

SMILES	TGI [1] [µM]	TGI [2] [µM]	TGI [3] [µM]	TGI [4] [µM]	TGI [5] [µM]	TGI [6] [µM]	TGI [7] [µM]	TGI [8] [µM]	TGI [9] [µM]	TGI [10] [µM]	TGI [11] [µM]	TGI [12] [µM]	TGI [13] [µM]	TGI [14] [µM]	TGI [15] [µM]	TGI [16] [µM]	TGI [17] [µM]	TGI [18] [µM]	TGI [19] [µM]	TGI [20] [µM]
[N-]=[N+]=NCc1nc(N)c2c3c(sc2n1)CCCC3	> 40.6	36.3	10.1	17.7	2.13	3.15	> 100	11.8	13.6	26.5	25.8	14.1	10.2	36.6	1.55	3.72	> 24.9	> 22.2	> 100	–
CN1C(=O)C2CCCC(=O)N2c2cccnc21 (centres undefined)	> 100	> 100	–	–	> 100	> 100	> 100	> 100	> 100	> 100	> 100	> 100	> 100	> 100	> 100	> 100	> 100	> 100	> 100	> 100
CC(C)=CCC/C(C)=C/CC/C(C)=C/CC(CO)N(C)CC/C=C(\C)CCC=C(C)C (centres undefined)	3.7	14.4	21.2	3.75	7.56	14.4	4.8	27.8	15.8	22.7	19.3	23.8	17.4	17.5	4.89	20.2	10.1	16.4	–	3.89
O=S(=O)(c1ccccc1)N1N=C2c3ccccc3CCC[C@H]2C1c1ccccc1 (some centres undefined)	> 100	> 100	> 100	> 100	> 100	> 100	> 100	> 100	> 100	> 100	> 100	> 100	> 100	> 100	> 100	> 100	> 100	–	> 100	> 100
CCOC(=O)[C@H](C)OC(=O)[C@@](C)(NC(=O)c1ccccc1C(=O)OC)[C@@H]1NC=C(C(=O)OC)CS1	> 100	> 100	> 100	> 100	–	> 100	46.5	> 100	> 100	> 100	> 100	> 100	> 100	> 100	> 100	> 100	> 100	> 100	–	> 100
CC(C)=CC1CC(=[N+]=[N-])C(=O)C1(C)C (centres undefined)	> 100	> 100	> 100	> 100	> 100	> 31.6	44.4	> 100	> 100	> 100	> 100	> 100	> 100	> 100	> 100	> 100	> 74.6	–	> 100	> 100
COc1cccc(C2CC23C(=O)NC(=O)NC3=O)c1 (centres undefined)	> 100	> 100	> 100	> 100	> 100	> 100	> 100	> 100	> 100	> 100	> 100	> 100	> 100	> 100	> 100	> 100	> 100	–	> 100	> 100
O=C(Cn1c(-c2ccccc2)cc2ccccc21)N1CCCC1	–	–	> 100	> 100	> 100	> 100	> 100	> 100	> 100	–	> 100	> 100	> 100	> 100	> 100	> 100	–	> 100	–	> 100
CC(=O)NC1=N/C(=C\c2ccc(Cl)cc2)C(=O)N1/C=C1\C(=O)Oc2ccccc2C1=O	> 100	> 100	> 100	> 100	> 100	> 100	> 100	> 100	> 100	–	> 100	> 100	> 100	> 100	> 100	> 100	> 100	> 100	> 100	> 100
CC1(C)CC(=O)CC(=Nc2ccc([N+](=O)[O-])cc2)C1	> 100	> 100	> 100	> 100	38.8	> 100	88.5	> 100	> 100	> 100	> 100	> 100	> 100	> 100	> 100	> 100	> 100	–	> 100	> 100
CCOC(=O)/C(=C/c1ccc(N(C)C)cc1)N(CC)CC	65.8	> 100	> 100	> 100	78.5	–	> 100	> 100	–	> 100	> 100	> 100	> 100	> 100	> 100	> 100	89	–	81	> 100
COc1cccc(C2c3cc4c(cc3OC(C)(N3CCCC3)C2C)OCO4)c1 (centres undefined)	> 100	> 100	47.5	13.9	25.1	15	> 100	22	26.4	37.2	70	82.3	48.6	32.1	> 100	64.1	–	40.2	> 100	5.7
COC(=O)[C@@]1(C)/C(=N/NS(=O)(=O)c2ccc(C)cc2)CCC[C@@H]1C	> 100	> 100	> 100	> 100	27.5	> 100	43.6	> 100	> 100	> 100	> 100	> 100	> 100	> 100	> 100	> 100	72.6	–	> 100	> 100
